According to patent US20240360146A1, “BRUTON'S TYROSINE KINASE AND MUTANT DEGRADER, COMPOSITION AND APPLICATION THEREOF” (HANGZHOU HEALZEN THERAPEUTICS CO., LTD., priority 2021, published 2024):

Each molecule was assayed against T1, BTK (Homo sapiens, UniProt Q06187) (assay: BTK degradation activity test in Mino cells). Details: 16 h incubation, Western blot or Elisa.
T1 construct: endogenous in cells; host or cells: Mino cells
Assay type: cell-based
Method in brief: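 Mino cells treated with a concentration series of compound for 16 h, then lysed; total protein by BCA. BTK quantified by Western blot or ELISA, degradation rate calculated against blank control, and DC50 fitted from the degradation curve.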

T1 sequence (Q06187 whole entry): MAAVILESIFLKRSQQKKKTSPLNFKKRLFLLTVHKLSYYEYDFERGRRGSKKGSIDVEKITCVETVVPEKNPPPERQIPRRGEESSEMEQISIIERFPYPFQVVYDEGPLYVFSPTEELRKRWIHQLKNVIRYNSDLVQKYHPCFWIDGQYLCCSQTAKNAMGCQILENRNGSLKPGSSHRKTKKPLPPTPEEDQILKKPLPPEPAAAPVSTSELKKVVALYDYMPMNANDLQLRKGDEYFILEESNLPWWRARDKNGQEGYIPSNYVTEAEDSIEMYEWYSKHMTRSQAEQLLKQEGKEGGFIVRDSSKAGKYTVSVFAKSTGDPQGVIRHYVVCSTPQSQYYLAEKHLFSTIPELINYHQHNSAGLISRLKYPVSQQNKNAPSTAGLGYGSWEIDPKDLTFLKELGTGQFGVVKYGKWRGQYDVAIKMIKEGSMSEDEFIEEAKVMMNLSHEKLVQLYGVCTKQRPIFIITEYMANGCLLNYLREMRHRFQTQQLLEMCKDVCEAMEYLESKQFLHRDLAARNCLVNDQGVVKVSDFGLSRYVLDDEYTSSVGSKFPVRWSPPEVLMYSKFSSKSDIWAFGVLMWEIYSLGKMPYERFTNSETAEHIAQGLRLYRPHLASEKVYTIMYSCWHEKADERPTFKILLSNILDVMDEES

Row | Structure (SMILES) | DC50 [nM]
1 | CN1CCN(C2CC3CC2N(c2nnc(C(N)=O)c(Nc4ccc(C5CCN(C6CN(c7ccc8c(c7)C(=O)N(C7CCC(=O)NC7=O)C8=O)C6)CC5)cc4)n2)C3)C1=O (stereo not shown) [Compound 049, 5-((4-(1-(1-(2-(2,6-dioxopiperidin-3-yl)-1,3-dioxoisoindolin-5-yl)azetidin-3-yl)piperidin-4-yl)phenyl)amino)-3-(-6-(3-methyl-2-oxoimidazolin-1-yl)-2-azabicyclo[2.2.1]heptan-2-yl)-1,2,4-triazin-6-carboxamide] | < 1
2 | CN1CCN(C2CC3CCC2N(c2cnc(C(N)=O)c(Nc4ccc(C5CCN(C6CN(c7ccc8c(c7)C(=O)N(C7CCC(=O)NC7=O)C8=O)C6)CC5)cc4)n2)C3)C1=O (stereo not shown) [Compound 050, 3-((4-(1-(1-(2-(2,6-dioxopiperidin-3-yl)-1,3-dioxoisoindolin-5-yl)azetidin-3-yl)piperidin-4-yl)phenyl)amino)-5-(-6-(3-methyl-2-oxoimidazolin-1-yl)-2-azabicyclo[2.2.2]octan-2-yl)pyrazin-2-carboxamide] | < 1
3 | CN1CCN(C2CC3CC2N(c2nnc(C(N)=O)c(Nc4ccc(C5CCN(C6CN(c7cc8c(cc7F)C(=O)N(C7CCC(=O)NC7=O)C8=O)C6)CC5)cc4)n2)C3)C1=O (stereo not shown) [Compound 051, 5-((4-(1-(1-(2-(2,6-dioxopiperidin-3-yl)-6-fluoro-1,3-dioxoisoindolin-5-yl)azetidin-3-yl)piperidin-4-yl)phenyl)amino)-3-(-6-(3-methyl-2-oxoimidazolin-1-yl)-2-azabicyclo[2.2.1]heptan-2-yl)-1,2,4-triazin-6-carboxamide] | < 1
4 | CC(C)N1CCN(C2CCCN(c3nnc(C(N)=O)c(Nc4ccc(C5CCN(CC6CCN(c7ccc8c(c7)C(=O)N(C7CCC(=O)NC7=O)C8=O)CC6)CC5)cc4)n3)C2)C1=O (stereo not shown) [Compound 055, 5-((4-(1-((1-(2-(2,6-dioxopiperidin-3-yl)-1,3-dioxoisoindol-5-yl)piperidin-4-yl)methyl)piperidin-4-yl)phenyl)amino)-3-(3-(3-isopropyl-2-oxoimidazolin-1-yl)piperidin-1-yl)-1,2,4-triazin-6-carboxamide] | < 1
5 | NC(=O)c1nnc(N2CCCC(N3CCN(C(F)(F)F)C3=O)C2)nc1Nc1ccc(C2CCN(CC3CCN(c4ccc5c(c4)C(=O)N(C4CCC(=O)NC4=O)C5=O)CC3)CC2)cc1 (stereo not shown) [Compound 056, 5-((4-(1-((1-(2-(2,6-dioxopiperidin-3-yl)-1,3-dioxoisoindol-5-yl)piperidin-4-yl)methyl)piperidin-4-yl)phenyl)amino)-3-(3-(2-oxo-3-(trifluoromethyl)imidazolin-1-yl)piperidin-1-yl)-1,2,4-triazin-6-carboxamide] | < 1
6 | NC(=O)c1nnc(N2CCCC(N3CCN(CC(F)(F)F)C3=O)C2)nc1Nc1ccc(C2CCN(CC3CCN(c4ccc5c(c4)C(=O)N(C4CCC(=O)NC4=O)C5=O)CC3)CC2)cc1 (stereo not shown) [Compound 057, 5-((4-(1-((1-(2-(2,6-dioxopiperidin-3-yl)-1,3-dioxoisoindol-5-yl)piperidin-4-yl)methyl)piperidin-4-yl)phenyl)amino)-3-(3-(2-oxo-3-(2,2,2-trifluoroethyl)imidazolin-1-yl)piperidin-1-yl)-1,2,4-triazin-6-carboxamide] | < 1
7 | NC(=O)c1nnc(N2CCCC(N3CCN(c4ccccc4)C3=O)C2)nc1Nc1ccc(C2CCN(CC3CCN(c4ccc5c(c4)C(=O)N(C4CCC(=O)NC4=O)C5=O)CC3)CC2)cc1 (stereo not shown) [Compound 064, 5-((4-(1-((1-(2-(2,6-dioxopiperidin-3-yl)-1,3-dioxoisoindol-5-yl)piperidin-4-yl)methyl)piperidin-4-yl)phenyl)amino)-3-(3-(2-oxo-3-phenylimidazolin-1-yl)piperidin-1-yl)-1,2,4-triazin-6-carboxamide] | < 1
8 | NC(=O)c1nnc(N2CCCC(N3CCN(c4ccccc4F)C3=O)C2)nc1Nc1ccc(C2CCN(CC3CCN(c4ccc5c(c4)C(=O)N(C4CCC(=O)NC4=O)C5=O)CC3)CC2)cc1 (stereo not shown) [Compound 065, 5-((4-(1-((1-(2-(2,6-dioxopiperidin-3-yl)-1,3-dioxoisoindol-5-yl)piperidin-4-yl)methyl)piperidin-4-yl)phenyl)amino)-3-(3-(3-(2-fluorophenyl)-2-oxoimidazolin-1-yl)piperidin-1-yl)-1,2,4-triazin-6-carboxamide] | < 1
9 | NC(=O)c1nnc(N2CCCC(N3CCN(c4cccc(F)c4)C3=O)C2)nc1Nc1ccc(C2CCN(CC3CCN(c4ccc5c(c4)C(=O)N(C4CCC(=O)NC4=O)C5=O)CC3)CC2)cc1 (stereo not shown) [Compound 066, 5-((4-(1-((1-(2-(2,6-dioxopiperidin-3-yl)-1,3-dioxoisoindol-5-yl)piperidin-4-yl)methyl)piperidin-4-yl)phenyl)amino)-3-(3-(3-(3-fluorophenyl)-2-oxoimidazolin-1-yl)piperidin-1-yl)-1,2,4-triazin-6-carboxamide] | < 1
10 | NC(=O)c1nnc(N2CCCC(N3CCN(c4cccnc4)C3=O)C2)nc1Nc1ccc(C2CCN(CC3CCN(c4ccc5c(c4)C(=O)N(C4CCC(=O)NC4=O)C5=O)CC3)CC2)cc1 (stereo not shown) [Compound 067, 5-((4-(1-((1-(2-(2,6-dioxopiperidin-3-yl)-1,3-dioxoisoindol-5-yl)piperidin-4-yl)methyl)piperidin-4-yl)phenyl)amino)-3-(3-(2-oxo-3-(pyridin-3-yl)imidazolin-1-yl)piperidin-1-yl)-1,2,4-triazin-6-carboxamide] | < 1

Second part, the molecule after the results:

Row | DC50 [nM] | Structure (SMILES)
11 | < 1 | NC(=O)c1ncc(N2CCCC(N3CCN(C4CCCC4)C3=O)C2)nc1Nc1ccc(C2CCN(CC3CCN(c4cc5c(cc4F)C(=O)N(C4CCC(=O)NC4=O)C5=O)C3)CC2)cc1 (stereo not shown) [Compound 052, 5-(3-(3-cyclopentyl-2-oxoimidazolin-1-yl)piperidin-1-yl)-3-((4-(1-((1-(2-(2,6-dioxopiperidin-3-yl)-6-fluoro-1,3-dioxoisoindolin-5-yl)pyrrolidin-3-yl)methyl)piperidin-4-yl)phenyl)amino)pyrazin-2-carboxamide]
12 | < 1 | CN1CCN(C2CCCN(c3nnc(C(N)=O)c(Nc4ccc(C5CCN(CC6CCN(c7ccc8c(c7)C(=O)N(C7CCC(=O)NC7=O)C8=O)CC6)CC5)cc4)n3)C2)C1=O (stereo not shown) [Compound 053, 5-((4-(1-((1-(2-(2,6-dioxopiperidin-3-yl)-1,3-dioxoisoindol-5-yl)piperidin-4-yl)methyl)piperidin-4-yl)phenyl)amino)-3-(3-(3-methyl-2-oxoimidazolin-1-yl)piperidin-1-yl)-1,2,4-triazin-6-carboxamide]
13 | < 1 | CCN1CCN(C2CCCN(c3nnc(C(N)=O)c(Nc4ccc(C5CCN(CC6CCN(c7ccc8c(c7)C(=O)N(C7CCC(=O)NC7=O)C8=O)CC6)CC5)cc4)n3)C2)C1=O (stereo not shown) [Compound 054, 5-((4-(1-((1-(2-(2,6-dioxopiperidin-3-yl)-1,3-dioxoisooctyl-5-yl)piperidin-4-yl)methyl)piperidin-4-yl)phenyl)amino)-3-(3-(3-ethyl-2-oxyimidazolin-1-yl)piperidin-1-yl)-1,2,4-triazin-6-carboxamide]
14 | < 1 | NC(=O)c1nnc(N2CCCC(N3CCN(C4CC4)C3=O)C2)nc1Nc1ccc(C2CCN(CC3CCN(c4ccc5c(c4)C(=O)N(C4CCC(=O)NC4=O)C5=O)CC3)CC2)cc1 (stereo not shown) [Compound 058, 3-(3-(3-cyclopropyl-2-oxoimidazolin-1-yl)piperidin-1-yl)-5-((4-(1-((1-(2-(2,6-dioxopiperidin-3-yl)-1,3-dioxoisoindol-5-yl)piperidin-4-yl)methyl)piperidin-4-yl)phenyl)amino)-1,2,4-triazin-6-carboxamide]
15 | > 1 | NC(=O)c1nnc(N2CCCC(N3CCN(C4CCC4)C3=O)C2)nc1Nc1ccc(C2CCN(CC3CCN(c4ccc5c(c4)C(=O)N(C4CCC(=O)NC4=O)C5=O)CC3)CC2)cc1 (stereo not shown) [Compound 059, 3-(3-(3-cyclobutyl-2-oxoimidazolin-1-yl)piperidin-1-yl)-5-((4-(1-((1-(2-(2,6-dioxopiperidin-3-yl)-1,3-dioxoisoindol-5-yl)piperidin-4-yl)methyl)piperidin-4-yl)phenyl)amino)-1,2,4-triazin-6-carboxamide]
16 | < 1 | NC(=O)c1nnc(N2CCCC(N3CCN(C4CCCC4)C3=O)C2)nc1Nc1ccc(C2CCN(CC3CCN(c4ccc5c(c4)C(=O)N(C4CCC(=O)NC4=O)C5=O)CC3)CC2)cc1 (stereo not shown) [Compound 060, 3-(3-(3-cyclopentyl-2-oxoimidazolin-1-yl)piperidin-1-yl)-5-((4-(1-((1-(2-(2,6-dioxopiperidin-3-yl)-1,3-dioxoisoindol-5-yl)piperidin-4-yl)methyl)piperidin-4-yl)phenyl)amino)-1,2,4-triazin-6-carboxamide]
17 | < 1 | NC(=O)c1nnc(N2CCCC(N3CCN(C4CCCCC4)C3=O)C2)nc1Nc1ccc(C2CCN(CC3CCN(c4ccc5c(c4)C(=O)N(C4CCC(=O)NC4=O)C5=O)CC3)CC2)cc1 (stereo not shown) [Compound 061, 3-(3-(3-cyclohexyl-2-oxoimidazolin-1-yl)piperidin-1-yl)-5-((4-(1-((1-(2-(2,6-dioxopiperidin-3-yl)-1,3-dioxoisoindol-5-yl)piperidin-4-yl)methyl)piperidin-4-yl)phenyl)amino)-1,2,4-triazin-6-carboxamide]
18 | < 1 | NC(=O)c1nnc(N2CCCC(N3CCN(C4COC4)C3=O)C2)nc1Nc1ccc(C2CCN(CC3CCN(c4ccc5c(c4)C(=O)N(C4CCC(=O)NC4=O)C5=O)CC3)CC2)cc1 (stereo not shown) [Compound 062, 5-((4-(1-((1-(2-(2,6-dioxopiperidin-3-yl)-1,3-dioxoisoindol-5-yl)piperidin-4-yl)methyl)piperidin-4-yl)phenyl)amino)-3-(3-(3-(oxetan-3-yl)-2-oxoimidazolin-1-yl)piperidin-1-yl)-1,2,4-triazin-6-carboxamide]
19 | > 1 | NC(=O)c1nnc(N2CCCC(N3CCN(C4CCOCC4)C3=O)C2)nc1Nc1ccc(C2CCN(CC3CCN(c4ccc5c(c4)C(=O)N(C4CCC(=O)NC4=O)C5=O)CC3)CC2)cc1 (stereo not shown) [Compound 063, 5-((4-(1-((1-(2-(2,6-dioxopiperidin-3-yl)-1,3-dioxoisoindol-5-yl)piperidin-4-yl)methyl)piperidin-4-yl)phenyl)amino)-3-(3-(2-oxo-3-(tetrahydro-2H-pyran-4-yl)imidazolin-1-yl)piperidin-1-yl)-1,2,4-triazin-6-carboxamide]
